Here are results for three molecules from patent US12178879B2, “Hemiasterlin derivative and antibody-drug conjugate thereof” (priority 2019, dated 2024).

Assay [1] relates to Karpas-299 cells. The experiment in a line: Cellular toxicity test (1), CellTiter-Glo. The note with it: 16 μg/mL solution added 50 μL per well, 4 days, relative to addition of no compound. It is filed as cell-based, human. The method, then:
Karpas-299 cells were prepared to be 2×10^6 cells/mL in culture medium A, and were added to a 96 well microplate for cell culturing in an amount of 50 μL for each well. […] After culturing, the microplate was taken out from the incubator, and was left at rest at room temperature for 10 minutes. To each well, 50 μL of CellTiter-Glo Luminescent Cell Viability Assay (Promega) was added, and the resultant mixture was stirred.
In general terms: Cellular ATP, detected with luciferase, serves as a proxy for viable cell number.

The next assay addresses T1, porcine tubulin (Sus scrofa, UniProt P02550+P02554).
T1 construct: purchased Cytoskeleton Inc. BK006P
As to the kind of experiment: Activity for inhibiting microtubule polymerization using porcine tubulins. It is filed as biochemical. The note with it: for Microtubule polymerization rate (%): at 9.1 μM, 60 minutes after assay initiation, absorbance at 340 nm, 37° C.; for activity for inhibiting microtubule polymerization (in words): summary of Test Example 3. The procedure: Using a tubulin polymerization inhibition assay kit (catalog number: BK006P) purchased from Cytoskeleton Inc., the polymerization inhibitory activity of compounds of Examples was evaluated in accordance with the protocol appended to the kit. To a 96 well microplate, 80 mM PIPES pH 6.9, 2 mM MgCl, 0.5 mM EGTA and 5% DMSO buffered solution of the compound to be evaluated was added in an amount of 10 μL for each well, and to these wells, 3 mg/mL porcine tubulin 80 mM PIPES pH 6.9, 2 mM MgCl, 0.5 mM EGTA, 1 mM GTP and 10.2% glycerol solution was added in an amount of 100 μL for each well. In order to examine a state in which tubulins polymerize over time, the absorbance at 340 nm was measured at 37° C., using a microplate reader. As the polymerization of tubulins progresses, the absorbance at 340 nm rises.
The tubulin polymerization inhibitory activity was evaluated based on the proportion of polymerized tubulins 60 minutes after the assay initiation. Specifically, the microtubule polymerization rate (%) was calculated by dividing the absorbance of tubulins that had polymerized at wells to which the compound had been added by the absorbance of tubulins that had polymerized at wells to which the compound had not been added, and multiplying the obtained value by 100.

The subject of assay [2] is Karpas-299 cells. The experiment in a line: Cellular toxicity test (2), CellTiter-Glo. The format is cell-based, human. To be noted: for Cell remaining rate (%): 0.25 μM solution added 50 μL per well, 4 days, relative to addition of no compound; for cellular toxicity (in words): summary of Test Example 2. The procedure: Karpas-299 cells (European Collection of Authenticated Cell Cultures, hereinafter, ECACC), which are CD30 antigen-expressing cell lines and human lymphoma cell lines, were cultured in RPMI 1640 (GIBCO) containing 10% fetal bovine serum (MP Biomedicals) (hereinafter, referred to as “culture medium A” in this test). Karpas-299 cells were prepared to be 2×10^6 cells/mL in culture medium A, and were added to a 96 well microplate for cell culturing in an amount of 50 μL for each well. Each compounds prepared to be in a concentration of 0.25 μM with culture medium A was added to the microplate in an amount of 50 μL for each well, and culture was carried out at 37° C. under 5% CO2 for 4 days. After culturing, the microplate was taken out from the incubator, and was left at rest at room temperature for 10 minutes. To each well, 50 μL of CellTiter-Glo Luminescent Cell Viability Assay (Promega) was added, and the resultant mixture was stirred. This mixture was incubated at a dark place for 20 minutes, and luminescence was measured by using a microplate luminometer, thereby determining the percentage of the number of cells remaining after treatment with each compound to the number of cells remaining after treatment with addition of no compound.

T1 sequence (P02550 whole entry): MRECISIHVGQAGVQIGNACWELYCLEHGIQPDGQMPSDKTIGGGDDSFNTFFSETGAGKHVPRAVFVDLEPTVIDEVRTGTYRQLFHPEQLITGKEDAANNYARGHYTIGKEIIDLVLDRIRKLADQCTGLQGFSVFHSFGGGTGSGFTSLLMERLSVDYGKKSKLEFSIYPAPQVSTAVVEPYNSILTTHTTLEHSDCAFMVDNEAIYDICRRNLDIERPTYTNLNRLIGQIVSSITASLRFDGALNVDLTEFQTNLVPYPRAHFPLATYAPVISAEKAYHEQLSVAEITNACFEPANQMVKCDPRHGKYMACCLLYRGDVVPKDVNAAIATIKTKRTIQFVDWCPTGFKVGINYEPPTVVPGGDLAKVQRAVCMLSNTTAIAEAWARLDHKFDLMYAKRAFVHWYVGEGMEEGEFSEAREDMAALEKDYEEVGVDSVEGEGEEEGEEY
T1 sequence (P02554 whole entry): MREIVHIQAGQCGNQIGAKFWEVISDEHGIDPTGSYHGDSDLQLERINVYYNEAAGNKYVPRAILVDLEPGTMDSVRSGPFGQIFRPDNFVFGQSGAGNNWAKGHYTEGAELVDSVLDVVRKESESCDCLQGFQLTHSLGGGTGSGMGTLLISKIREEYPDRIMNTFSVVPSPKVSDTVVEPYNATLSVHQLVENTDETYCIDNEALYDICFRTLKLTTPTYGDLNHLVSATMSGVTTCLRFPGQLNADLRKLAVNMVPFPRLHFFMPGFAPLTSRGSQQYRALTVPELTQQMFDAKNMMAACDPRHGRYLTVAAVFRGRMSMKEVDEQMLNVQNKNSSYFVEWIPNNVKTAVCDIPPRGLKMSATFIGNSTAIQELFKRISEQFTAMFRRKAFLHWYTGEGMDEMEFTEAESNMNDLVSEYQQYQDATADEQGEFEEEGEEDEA

For Brentuximab, the “Cell remaining rate (%)” value in the assay with Karpas-299 cells [1] is 71.5%.
As for `CN[C@H](C(=O)N[C@H](C(=O)N(C)[C@H](/C=C(\C)C(=O)N[C@H](CCC(=O)NCCCC[C@H](N)C(=O)O)C(=O)O)C(C)C)C(C)(C)C)C(C)(C)c1ccccc1` [Metabolite of Example ADC1], on porcine tubulin, the “Microtubule polymerization rate (%)” value is reported as 1.7% and the “activity for inhibiting microtubule polymerization (in words)” value is “comparable activities for inhibiting microtubule polymerization”. In the assay on Karpas-299 cells [2], the “Cell remaining rate (%)” value came to 100% and the “cellular toxicity (in words)” value was “weak cytotoxic activity”.
On to `CN[C@H](C(=O)N[C@H](C(=O)N(C)[C@H](/C=C(\C)C(=O)NCCCCNC(=O)CCCCCN1C(=O)CC(SC[C@H](N)C(=O)O)C1=O)C(C)C)C(C)(C)C)C(C)(C)c1cn(C)c2ccccc12` (stereo partly drawn) [Comparative Example compound, reference compound], for which, at porcine tubulin, the “Microtubule polymerization rate (%)” value is 0% and the “activity for inhibiting microtubule polymerization (in words)” value is listed as “comparable activities for inhibiting microtubule polymerization”. For the same molecule, in the assay with Karpas-299 cells [2], the “Cell remaining rate (%)” value is given as 18.1% and the “cellular toxicity (in words)” value is listed as “strong cellular toxicity”.
